Consider twelve molecules from ChEMBL document CHEMBL3045787, “Synthesis of novel 1,4-naphthoquinone derivatives: antibacterial and antifungal agents” (2013).

In brackets after ≈: the same amount, converted by molar mass. Activity calls are given as the source filed them.

The test system of experiment [1] is Staphylococcus aureus. The experiment in a line: Antibacterial activity against Staphylococcus aureus 209-P assessed as growth inhibition at 0.1% after 24 hr by agar disk diffusion method. The experiment is classed as functional.
The test system of experiment [2] is Escherichia coli. Description: Antibacterial activity against Escherichia coli B 906 assessed as growth inhibition at 0.1% after 24 hr by agar disk diffusion method. The format is functional.
The test system of experiment [3] is Mycobacterium. The experiment in a line: Antibacterial activity against Mycobacterium luteum B-917 assessed as growth inhibition at 0.1% after 24 hr by agar disk diffusion method. The experiment is classed as functional. On the technique in general: Agar diffusion results depend on both activity and mobility in agar.
In experiment [4] the test system is Staphylococcus aureus. Description: Antibacterial activity against Staphylococcus aureus 209-P assessed as growth inhibition at 0.5% after 24 hr by agar disk diffusion method. The experiment is classed as functional.
The subject of experiment [5] is Aspergillus niger. Description: Antifungal activity against Aspergillus niger assessed as growth inhibition at 0.1% after 48 to 72 hr by agar disk diffusion method. The experiment is classed as functional.
Experiment [6] relates to Mycobacterium. Description: Antibacterial activity against Mycobacterium luteum B-917 assessed as growth inhibition after 24 to 72 hr by serial dilution method. The format is functional.
The test system of experiment [7] is Yamadazyma tenuis. The experiment in a line: Antifungal activity against Candida tenuis assessed as growth inhibition after 24 to 72 hr by serial dilution method. The experiment is classed as functional.
For experiment [8], the system named is Staphylococcus aureus. Description: Antibacterial activity against Staphylococcus aureus 209-P assessed as growth inhibition after 24 to 72 hr by serial dilution method. The experiment is classed as functional.
The test system of experiment [9] is Yamadazyma tenuis. Description: Antifungal activity against Candida tenuis assessed as growth inhibition at 0.5% after 48 to 72 hr by agar disk diffusion method. The experiment is classed as functional.
Experiment [10] has as its system Aspergillus niger. Description: Antifungal activity against Aspergillus niger assessed as growth inhibition at 0.5% after 48 to 72 hr by agar disk diffusion method. The experiment is classed as functional.
Experiment [11] relates to Aspergillus niger. The experiment in a line: Antifungal activity against Aspergillus niger assessed as growth inhibition after 24 to 72 hr by serial dilution method. The format is functional.
Experiment [12] relates to Yamadazyma tenuis. Description: Antifungal activity against Candida tenuis assessed as growth inhibition at 0.1% after 48 to 72 hr by agar disk diffusion method. The experiment is classed as functional.
The test system of experiment [13] is Escherichia coli. Description: Antibacterial activity against Escherichia coli B 906 assessed as growth inhibition after 24 to 72 hr by serial dilution method. The format is functional, organism-based.
Experiment [14] deals with Escherichia coli. Description: Antibacterial activity against Escherichia coli B 906 assessed as growth inhibition at 0.5% after 24 hr by agar disk diffusion method. The experiment is classed as functional.
The test system of experiment [15] is Mycobacterium. Description: Antibacterial activity against Mycobacterium luteum B-917 assessed as growth inhibition at 0.5% after 24 hr by agar disk diffusion method. The experiment is classed as functional.

`CN[C@H](CC(C)C)C(=O)N[C@H]1C(=O)N[C@@H](CC(N)=O)C(=O)N[C@H]2C(=O)N[C@H]3C(=O)N[C@H](C(=O)N[C@H](C(=O)O)c4cc(O)cc(O)c4-c4cc3ccc4O)[C@H](O)c3ccc(c(Cl)c3)Oc3cc2cc(c3O[C@@H]2O[C@H](CO)[C@@H](O)[C@H](O)[C@H]2O[C@H]2C[C@](C)(N)[C@H](O)[C@H](C)O2)Oc2ccc(cc2Cl)[C@H]1O` [VANCOMYCIN]: the “diameter of the inhibition zone (DIZ)” value in the experiment with Staphylococcus aureus [1] is on record as 15 mm; in the experiment with Escherichia coli [2], 14 mm; with Mycobacterium [3], 18 mm.
As a reminder, the MIC is the smallest concentration in the dilution series that meets the test's criterion for growth inhibition. Consider `COC(=O)CCSC1=C(SCCC(=O)OC)C(=O)c2ccccc2C1=O`, for which the “diameter of the inhibition zone (DIZ)” value is given as 13.4 mm with Staphylococcus aureus [4]; 10 mm in the experiment on Staphylococcus aureus [1]; 12.4 mm in the experiment on Aspergillus niger [5]; 0 mm in the experiment on Escherichia coli [2]; 15 mm in the experiment with Yamadazyma tenuis [9]; 14.7 mm with Aspergillus niger [10]. Moreover, the “diameter of the inhibition zone (DIZ)” value is reported as 15.4 mm in the experiment on Mycobacterium [3], 10 mm in the experiment on Yamadazyma tenuis [12], 0 mm in the experiment with Escherichia coli [14] and 19.7 mm with Mycobacterium [15]. Also, the minimal inhibitory concentration (MIC) in the experiment with Mycobacterium [6] turned out to be 7.8 µg/mL (≈ 19.8 µM); in the experiment on Yamadazyma tenuis [7], 15.6 µg/mL (≈ 39.5 µM); in the experiment with Staphylococcus aureus [8] it was 250 µg/mL (≈ 634 µM); in the experiment on Aspergillus niger [11] it was 15.6 µg/mL (≈ 39.5 µM). Also, in the experiment with Escherichia coli [13], the MIC entry is “inactive”.
For `O=C1C(SCc2ccc(Cl)cc2)=C(N2CCC(C(O)(c3ccccc3)c3ccccc3)CC2)C(=O)c2ccccc21`, the “diameter of the inhibition zone (DIZ)” value in the experiment with Staphylococcus aureus [4], in the experiment with Staphylococcus aureus [1], with Aspergillus niger [5], with Escherichia coli [2], with Yamadazyma tenuis [9] and in the experiment with Aspergillus niger [10] was 0 mm throughout. Also, the “diameter of the inhibition zone (DIZ)” value in the experiment with Mycobacterium [3], in the experiment on Yamadazyma tenuis [12], with Escherichia coli [14] and in the experiment with Mycobacterium [15] was 0 mm each time. The MIC entry with Mycobacterium [6], with Staphylococcus aureus [8] and in the experiment with Escherichia coli [13] was “inactive” throughout. Moreover, the MIC in the experiment with Yamadazyma tenuis [7] is 7.8 µg/mL (≈ 13.4 µM); with Aspergillus niger [11], 31.2 µg/mL (≈ 53.8 µM).
On to `O=C1C(Cl)=C(Sc2c(Cl)c(Cl)c(Cl)c(Cl)c2Cl)C(=O)c2ccccc21`, for which the “diameter of the inhibition zone (DIZ)” value in the experiment on Staphylococcus aureus [4], with Staphylococcus aureus [1], with Aspergillus niger [5], with Escherichia coli [2], in the experiment on Yamadazyma tenuis [9] and with Aspergillus niger [10] was 0 mm in each case. For the same molecule, the “diameter of the inhibition zone (DIZ)” value in the experiment with Mycobacterium [3], with Yamadazyma tenuis [12], with Escherichia coli [14] and in the experiment on Mycobacterium [15] was 0 mm in each case. Further, the MIC result with Mycobacterium [6], in the experiment with Staphylococcus aureus [8] and in the experiment with Escherichia coli [13] was “inactive” throughout. The minimum inhibitory concentration (MIC) was 125 µg/mL (≈ 264 µM) in the experiment with Yamadazyma tenuis [7] and 250 µg/mL (≈ 529 µM) in the experiment with Aspergillus niger [11].
Take `O=C1C(Sc2ccc(O)cc2)=C(Sc2ccc(O)cc2)C(=O)c2ccccc21`: the “diameter of the inhibition zone (DIZ)” value in the experiment with Staphylococcus aureus [4] came out at 9.7 mm; in the experiment with Staphylococcus aureus [1], 6 mm; in the experiment with Aspergillus niger [5] it was 0 mm; in the experiment with Escherichia coli [2], 0 mm; in the experiment on Yamadazyma tenuis [9], 0 mm; in the experiment with Aspergillus niger [10], 8 mm. The “diameter of the inhibition zone (DIZ)” value was 7 mm with Mycobacterium [3], 0 mm with Yamadazyma tenuis [12], 0 mm in the experiment on Escherichia coli [14] and 12.7 mm with Mycobacterium [15]. The MIC with Mycobacterium [6] turned out to be 250 µg/mL (≈ 615 µM); in the experiment with Yamadazyma tenuis [7], 7.8 µg/mL (≈ 19.2 µM); in the experiment with Staphylococcus aureus [8], 125 µg/mL (≈ 308 µM); in the experiment on Aspergillus niger [11], 7.8 µg/mL (≈ 19.2 µM). The MIC result with Escherichia coli [13] is “inactive”.
`O=C1C(SCc2ccc(Cl)cc2)=C(N2CCCCC2)C(=O)c2ccccc21`: the “diameter of the inhibition zone (DIZ)” value with Staphylococcus aureus [4], in the experiment on Staphylococcus aureus [1], in the experiment with Aspergillus niger [5], in the experiment with Escherichia coli [2], in the experiment with Yamadazyma tenuis [9] and with Aspergillus niger [10] was 0 mm in each case. The “diameter of the inhibition zone (DIZ)” value was found to be 0 mm in the experiment on Mycobacterium [3], 0 mm in the experiment on Yamadazyma tenuis [12], 0 mm with Escherichia coli [14] and 9 mm in the experiment with Mycobacterium [15]. Also, the MIC with Mycobacterium [6] stood at 250 µg/mL (≈ 628 µM). In addition, the MIC result in the experiment on Yamadazyma tenuis [7], in the experiment on Staphylococcus aureus [8], in the experiment with Aspergillus niger [11] and in the experiment on Escherichia coli [13] was “inactive” each time.
Turning to `O=C1C2=C(SCCCCSC3=C(SCCCCS2)C(=O)c2ccccc2C3=O)C(=O)c2ccccc21`, the “diameter of the inhibition zone (DIZ)” value with Staphylococcus aureus [4] came to 12 mm; with Staphylococcus aureus [1], 10.4 mm; in the experiment on Aspergillus niger [5], 16.4 mm; in the experiment on Escherichia coli [2], 0 mm; in the experiment on Yamadazyma tenuis [9] it was 11.4 mm; in the experiment on Aspergillus niger [10], 19.4 mm. Further, the “diameter of the inhibition zone (DIZ)” value was found to be 21.4 mm with Mycobacterium [3], 9.7 mm in the experiment on Yamadazyma tenuis [12], 0 mm in the experiment with Escherichia coli [14] and 25.4 mm in the experiment on Mycobacterium [15]. The MIC stood at 1.9 µg/mL (≈ 3.44 µM) in the experiment with Mycobacterium [6], 3.9 µg/mL (≈ 7.06 µM) in the experiment on Yamadazyma tenuis [7], 500 µg/mL (≈ 905 µM) in the experiment with Staphylococcus aureus [8] and 15.6 µg/mL (≈ 28.2 µM) in the experiment with Aspergillus niger [11]. Also, the MIC result in the experiment with Escherichia coli [13] is “inactive”.
For `O=C1C(SCc2ccc(Cl)cc2)=C(N2CCN(c3ccccc3F)CC2)C(=O)c2ccccc21`, the “diameter of the inhibition zone (DIZ)” value with Staphylococcus aureus [4], in the experiment on Staphylococcus aureus [1], with Aspergillus niger [5], in the experiment on Escherichia coli [2], with Yamadazyma tenuis [9] and in the experiment on Aspergillus niger [10] was 0 mm each time. Moreover, the “diameter of the inhibition zone (DIZ)” value with Mycobacterium [3], in the experiment with Yamadazyma tenuis [12], with Escherichia coli [14] and with Mycobacterium [15] was 0 mm in each case. For the same molecule, the MIC entry in the experiment with Mycobacterium [6], in the experiment with Yamadazyma tenuis [7], with Staphylococcus aureus [8], in the experiment on Aspergillus niger [11] and in the experiment on Escherichia coli [13] was “inactive” in each case.
In the case of `O=C1C(Cl)=C(N2CCC(C(O)(c3ccccc3)c3ccccc3)CC2)C(=O)c2ccccc21`, the “diameter of the inhibition zone (DIZ)” value with Staphylococcus aureus [4], with Staphylococcus aureus [1], with Aspergillus niger [5], in the experiment with Escherichia coli [2], with Yamadazyma tenuis [9] and in the experiment on Aspergillus niger [10] was 0 mm throughout. The “diameter of the inhibition zone (DIZ)” value in the experiment on Mycobacterium [3] is reported as 7.5 mm; with Yamadazyma tenuis [12] it was 0 mm; with Escherichia coli [14], 0 mm; in the experiment with Mycobacterium [15] it was 9 mm. Besides, the MIC entry with Mycobacterium [6], in the experiment on Yamadazyma tenuis [7], in the experiment with Staphylococcus aureus [8], with Aspergillus niger [11] and with Escherichia coli [13] was “inactive” each time.
Consider `O=C1C(SCc2ccc(Cl)cc2)=C(N2CCOCC2)C(=O)c2ccccc21`, for which the “diameter of the inhibition zone (DIZ)” value with Staphylococcus aureus [4], with Staphylococcus aureus [1], with Aspergillus niger [5], in the experiment on Escherichia coli [2], in the experiment with Yamadazyma tenuis [9] and in the experiment with Aspergillus niger [10] was 0 mm throughout. In addition, the “diameter of the inhibition zone (DIZ)” value came to 7 mm in the experiment with Mycobacterium [3], 0 mm with Yamadazyma tenuis [12], 0 mm in the experiment with Escherichia coli [14] and 8 mm with Mycobacterium [15]. In addition, the MIC result in the experiment on Mycobacterium [6], with Yamadazyma tenuis [7], in the experiment with Staphylococcus aureus [8], with Aspergillus niger [11] and in the experiment on Escherichia coli [13] was “inactive” in each case.
As to `O=C1C(SCc2ccc(Cl)cc2)=C(N2CCSCC2)C(=O)c2ccccc21`, the “diameter of the inhibition zone (DIZ)” value in the experiment with Staphylococcus aureus [4], in the experiment on Staphylococcus aureus [1], in the experiment with Aspergillus niger [5], in the experiment with Escherichia coli [2], in the experiment on Yamadazyma tenuis [9] and with Aspergillus niger [10] was 0 mm in each case. In addition, the “diameter of the inhibition zone (DIZ)” value is recorded as 7 mm with Mycobacterium [3], 0 mm in the experiment on Yamadazyma tenuis [12], 0 mm in the experiment on Escherichia coli [14] and 13.4 mm in the experiment with Mycobacterium [15]. Also, the figures for the MIC with Mycobacterium [6], in the experiment with Yamadazyma tenuis [7] and with Aspergillus niger [11] were 125 µg/mL (≈ 301 µM), 7.8 µg/mL (≈ 18.8 µM) and 31.2 µg/mL (≈ 75 µM), respectively. Besides, the MIC entry with Staphylococcus aureus [8] and in the experiment with Escherichia coli [13] was “inactive” in each case.
For the molecule NYSTATIN, the inhibition zone (IZ) in the experiment on Aspergillus niger [5] was 20 mm; in the experiment on Yamadazyma tenuis [12], 19 mm.
